Marks after values point to notes of the source that are not given here.
Experiments:
[1] = system: Middle cerebral artery occlusion (MCAO) models of SD rats; assay: Rat MCAO model, 7 daily doses, neurobehavioral scoring (Bederson, NSS); assay type: in vivo; set-up: scale not given here; settings: for NSS: 60mg/kg
Excerpt: Middle cerebral artery occlusion (MCAO) models of SD rats were constructed using the suture occlusion method to evaluate the neuroprotective effect of the compound on neurons of rats after cerebral ischemia-reperfusion. […] The ECA was ligated. The ICA was temporarily occluded. Sutures were threaded at both the proximal end and the distal end of CCA. The distal end was securely ligated, and a loosely tied knot was placed at the proximal end. A small incision was made on the CCA between these two sutures. […] The threading was halted temporarily when reaching the artery clamp of ICA. The pre-ligation suture was further tightened. The artery clamp blocking the blood flow in the ICA was removed, allowing the suture occlusion to be advanced into the ICA until it entered the intracranial region. […] The insertion was stopped at the moment, and the time was recorded. The artery clamp on the CCA was removed and the incision was closed after no active bleeding was observed. The ischemic rats were placed at room temperature to keep their body temperature at 37°C, and anesthesia induction could be carried out 120min later. The suture was slowly and gradually withdrawn when the rats were maintained under anesthesia, so that the proximal end of the suture returned to the ECA, thereby initiating reperfusion of the middle cerebral artery. […] A single dose was administered immediately after reperfusion (within 10 minutes), followed by one dose per day for a total of 7 consecutive doses (including the first dose). Except for the initial administration, all subsequent doses were given between 4:00 PM and 7:00 PM each day. […] Animals were euthanized 7 days after ischemia reperfusion, and the brains were rapidly taken, frozen, and dissected for TTC staining. The normal tissues were rose-red after staining, and the infarcted tissues were white. The infarct size (%) percentage, calculated as the weight of infarcted tissues to the weight of the whole brain, is used to evaluate the degree of cerebral ischemic injury in rats. […] Table 12 Cerebral infarct size and cerebral infarction inhibition rate of experimental animals (2) Neurobehavioral scoring: […] Table 13: Results of Neurobehavioral Scores in Animals

[2] = Distribution in plasma and brain tissues of rats; assay type: in vivo, Male SD rats; settings: rat, 20mg/kg p.o.
Excerpt: The concentration of compound in the plasma and brain tissue samples was quantified by liquid chromatography-tandem mass spectrometry (LC-MS/MS).

[3] = system: Middle cerebral artery occlusion (MCAO) models of SD rata; assay: Rat MCAO model, 28-day dosing, pathological examination (restoration area, perfused blood vessels); assay type: in vivo, SD rats; settings: for Proportion of samples showing good recovery (%): restoration area > 30%; for No. of erythrocyte-containing blood vessels ≤10: number of animals
Procedure: Middle cerebral artery occlusion (MCAO) models of SD rata were constructed by using the suture occlusion method. The rats were administered with the test compound for 28 consecutive days. The pharmacodynamic evaluation on the test compound for cerebral stroke was obtained based on general observation and neurobehavioral assessment. […] The ECA was ligated. The ICA was temporarily occluded. Sutures were threaded at both the proximal end and the distal end of CCA. The distal end was securely ligated, and a loosely tied knot was placed at the proximal end. A small incision was made on the CCA between these two sutures. […] The threading was halted temporarily when reaching the artery clamp of ICA. The pre-ligation suture was further tightened. The artery clamp blocking the blood flow in the ICA was removed, allowing the suture occlusion to be advanced into the ICA until it entered the intracranial region. […] The insertion was stopped at the moment, and the time was recorded. The artery clamp on the CCA was removed and the incision was closed after no active bleeding was observed. The ischemic rats were placed at room temperature to keep their body temperature at 37°C, and anesthesia induction could be carried out 120min later. The suture was slowly and gradually withdrawn under anesthesia until the proximal end retracted into the ECA, thereby initiating reperfusion of the middle cerebral artery. Animals received the designated dosage immediately (within 10 min) after reperfusion. This dosing regimen continued once daily for a duration of 28 days, with the day of operation being defined as D1 (Day 0). […] After the completion of the 28-day dosing period, all surviving animals in the study were euthanized, and their brains were rapidly collected for pathological analysis. […] Table 8 Results of Grid Walking Test […] Table 10 Summary of Tissue Restoration in Each Group

[4] = system: Middle cerebral artery occlusion (MCAO) models of SD rata; assay: Rat MCAO model, 28-day dosing, grid walking test; assay type: in vivo, SD rats; settings: Mean±SD
Procedure: Middle cerebral artery occlusion (MCAO) models of SD rata were constructed by using the suture occlusion method. The rats were administered with the test compound for 28 consecutive days. The pharmacodynamic evaluation on the test compound for cerebral stroke was obtained based on general observation and neurobehavioral assessment. […] The ECA was ligated. The ICA was temporarily occluded. Sutures were threaded at both the proximal end and the distal end of CCA. The distal end was securely ligated, and a loosely tied knot was placed at the proximal end. A small incision was made on the CCA between these two sutures. […] The threading was halted temporarily when reaching the artery clamp of ICA. The pre-ligation suture was further tightened. The artery clamp blocking the blood flow in the ICA was removed, allowing the suture occlusion to be advanced into the ICA until it entered the intracranial region. […] The insertion was stopped at the moment, and the time was recorded. The artery clamp on the CCA was removed and the incision was closed after no active bleeding was observed. The ischemic rats were placed at room temperature to keep their body temperature at 37°C, and anesthesia induction could be carried out 120min later. The suture was slowly and gradually withdrawn under anesthesia until the proximal end retracted into the ECA, thereby initiating reperfusion of the middle cerebral artery. Animals received the designated dosage immediately (within 10 min) after reperfusion. This dosing regimen continued once daily for a duration of 28 days, with the day of operation being defined as D1 (Day 0). […] After the completion of the 28-day dosing period, all surviving animals in the study were euthanized, and their brains were rapidly collected for pathological analysis. […] Table 8 Results of Grid Walking Test

[5] = 60mg/kg p.o. q.d. 28 days, N = 14
[6] = high dose 20mg/kg p.o. q.d. 28 days
[7] = high dose 20mg/kg p.o. q.d. 28 days, N = 12
[8] = low dose 6mg/kg p.o. q.d. 28 days
[9] = low dose 6mg/kg p.o. q.d. 28 days, N = 12

CCCCC1OC(=O)c2ccccc21 (stereo not drawn) [Butylphthalide, butylphthalide, reference compound]
Bederson ([1]; 60mg/kg group, score after surgery, Mean±SD): 3.00± 0.00 | NSS ([1]; D0 (one day before surgery), Mean±SD): 0.00± 0.00 | NSS ([1]; D2 (1 day after surgery), Mean±SD): 6.71± 1.36 | NSS ([1]; D4 (3 days after surgery), Mean±SD): 5.75±0.92 | NSS ([1]; D6 (5 days after surgery), Mean±SD): 4.88± 1.73 | NSS ([1]; D8 (7 days after surgery), Mean±SD): 4.04±1.20 | Measured value in brain tissues Concentration ([2]; 0.5 h): 28.5 ng/g | Measured value in plasma Concentration ([2]; 0.5 h): 26.0 ng/mL | Measured value in brain tissues Concentration ([2]; 1 h): 22.8 ng/g | Measured value in plasma Concentration ([2]; 1 h): 19.1 ng/mL | Measured value in brain tissues Concentration ([2]; 4h): 10.2 ng/g | Measured value in plasma Concentration ([2]; 4h): 7.2 ng/mL | Measured value in plasma Concentration ([2]; 24 h): 1.7 ng/mL | Proportion of erythrocyte-containing blood vessels>10 (%) ([3]; 60mg/kg p.o. q.d. 28 days): 93.3% | Number of samples Restoration area > 30% [3, 5]: 3 | Number of samples Restoration area ≤ 30% [3, 5]: 11 | Proportion of samples showing good recovery (%) ([3]; 60mg/kg p.o. q.d. 28 days): 21.4% | No. of erythrocyte-containing blood vessels ≤10 ([3]; 60mg/kg p.o. q.d. 28 days, N = 15): 1 | Misstep frequency (times) ([4]; 60mg/kg p.o. q.d., 1W after operation, listed as NBP): 7.37±3.03 times | Misstep frequency (times) ([4]; 60mg/kg p.o. q.d., 2W after operation): 8.10± 2.97 times | Misstep frequency (times) ([4]; 60mg/kg p.o. q.d., 3W after operation): 6.27± 2.890 times | Misstep frequency (times) ([4]; 60mg/kg p.o. q.d., 4W after operation): 2.10± 1.46 times

(Z)-3-(1-hydroxybutenyl)benzofuran-2-one tromethamine salt [Example 10]
Bederson ([1]; rat, in vivo): 3.00± 0.00

CCC/C(O)=C1/C(=O)Oc2ccccc21 [Compound (I)]
Measured value in brain tissues Concentration ([2]; 0.5 h): 8733.3 ng/g | Measured value in plasma Concentration ([2]; 0.5 h): 241333.3 ng/mL | Measured value in brain tissues Concentration ([2]; 1 h): 5726.7 ng/g | Measured value in plasma Concentration ([2]; 1 h): 192333.3 ng/mL | Measured value in brain tissues Concentration ([2]; 4h): 5030.0 ng/g | Measured value in plasma Concentration ([2]; 4h): 182333.3 ng/mL | Measured value in brain tissues Concentration ([2]; 24 h): 285.3 ng/g | Measured value in plasma Concentration ([2]; 24 h): 23500.0 ng/mL | Proportion of erythrocyte-containing blood vessels>10 (%) [3, 6]: 92.3% | Number of samples Restoration area > 30% [3, 7]: 9** | Number of samples Restoration area ≤ 30% [3, 7]: 3 | Proportion of samples showing good recovery (%) [3, 6]: 75.0% | Proportion of erythrocyte-containing blood vessels>10 (%) [3, 8]: 100% | Number of samples Restoration area > 30% [3, 9]: 4 | Number of samples Restoration area ≤ 30% [3, 9]: 8 | Proportion of samples showing good recovery (%) [3, 8]: 33.3% | No. of erythrocyte-containing blood vessels ≤10 ([3]; high dose 20mg/kg p.o. q.d. 28 days, N = 13): 1 | No. of erythrocyte-containing blood vessels ≤10 [3, 9]: 0 | Misstep frequency (times) ([4]; high dose 20mg/kg p.o. q.d., 1W after operation, 20 mg/kg): 4.23±1.44 times | Misstep frequency (times) ([4]; high dose 20mg/kg p.o. q.d., 1W after operation, listed as compound (I), 20 mg/kg): 4.23±1.44 times | Misstep frequency (times) ([4]; high dose 20mg/kg p.o. q.d., 2W after operation): 3.23± 2.56 times | Misstep frequency (times) ([4]; high dose 20mg/kg p.o. q.d., 3W after operation): 2.50± 0.81 times | Misstep frequency (times) ([4]; high dose 20mg/kg p.o. q.d., 4W after operation): 1.42± 1.11 times | Misstep frequency (times) ([4]; low dose 6mg/kg p.o. q.d., 1W after operation, 6 mg/kg): 5.33± 2.33 times | Misstep frequency (times) ([4]; low dose 6mg/kg p.o. q.d., 1W after operation, listed as compound (I), 6 mg/kg): 5.33±2.33 times | Misstep frequency (times) ([4]; low dose 6mg/kg p.o. q.d., 2W after operation): 6.33± 3.53 times | Misstep frequency (times) ([4]; low dose 6mg/kg p.o. q.d., 3W after operation): 4.38± 2.44 times | Misstep frequency (times) ([4]; low dose 6mg/kg p.o. q.d., 4W after operation): 2.58± 1.55 times
